Data on 5 molecules can be found in article PMC11253546, “Fidelity in plant hormone modifications catalyzed by Arabidopsis GH3 acyl acid amido synthetases” (The Journal of Biological Chemistry, 2024).

Assay [1] has as its target T1, AtGH3.11/JAR1 (Arabidopsis thaliana, UniProt Q9SKE2).
T1 sequence (Q9SKE2 1-575): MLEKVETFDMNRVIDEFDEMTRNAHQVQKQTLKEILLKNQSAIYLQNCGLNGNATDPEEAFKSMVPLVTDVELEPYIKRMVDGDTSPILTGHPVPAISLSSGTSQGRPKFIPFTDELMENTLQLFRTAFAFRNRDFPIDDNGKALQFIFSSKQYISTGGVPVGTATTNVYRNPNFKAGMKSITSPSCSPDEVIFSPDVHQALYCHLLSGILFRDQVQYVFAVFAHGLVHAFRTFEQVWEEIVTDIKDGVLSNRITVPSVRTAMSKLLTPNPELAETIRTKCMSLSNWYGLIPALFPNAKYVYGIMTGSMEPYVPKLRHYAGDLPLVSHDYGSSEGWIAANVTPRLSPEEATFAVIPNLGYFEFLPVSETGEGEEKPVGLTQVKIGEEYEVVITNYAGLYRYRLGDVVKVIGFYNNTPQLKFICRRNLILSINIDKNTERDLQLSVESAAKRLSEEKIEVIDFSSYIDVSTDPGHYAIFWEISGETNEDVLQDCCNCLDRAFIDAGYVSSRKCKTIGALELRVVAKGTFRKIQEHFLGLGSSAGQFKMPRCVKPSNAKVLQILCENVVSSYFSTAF
Briefly: single-turnover TLC with [α-32P]ATP, acyl-AMP formation. To be noted: first half-reaction with JA, no amino acid, 1 mM MgCl2, pH 8.0, 25 °C; labelled compound. The class given is biochemical.

In assay [2] the test system is T2, GH3-N2/C5.
T2 construct: gene GH3.2; one fusion chain: AtGH3.2 residues 1-442 then AtGH3.5 residues 450-608; codon-optimized, pET-28a, His-tagged, E. coli Rosetta2 (DE3), monomer
Put plainly: coupled myokinase/pyruvate kinase/lactate dehydrogenase assay of AMP formation, A340. Format: biochemical, Arabidopsis thaliana. To be noted: 1 mM ATP, 5 mM aspartate, 1 mM MgCl2, pH 8.0, 25 °C. The source says:
coupled myokinase/pyruvate kinase/lactate dehydrogenase assay of AMP formation, A340 on GH3-N2/C5

The target of assay [3] is T3, AtGH3.12/PBS3 (Arabidopsis thaliana, UniProt Q9LYU4).
T3 construct: gene GH3.12; once misprinted PBS2
T3 sequence (Q9LYU4 1-575): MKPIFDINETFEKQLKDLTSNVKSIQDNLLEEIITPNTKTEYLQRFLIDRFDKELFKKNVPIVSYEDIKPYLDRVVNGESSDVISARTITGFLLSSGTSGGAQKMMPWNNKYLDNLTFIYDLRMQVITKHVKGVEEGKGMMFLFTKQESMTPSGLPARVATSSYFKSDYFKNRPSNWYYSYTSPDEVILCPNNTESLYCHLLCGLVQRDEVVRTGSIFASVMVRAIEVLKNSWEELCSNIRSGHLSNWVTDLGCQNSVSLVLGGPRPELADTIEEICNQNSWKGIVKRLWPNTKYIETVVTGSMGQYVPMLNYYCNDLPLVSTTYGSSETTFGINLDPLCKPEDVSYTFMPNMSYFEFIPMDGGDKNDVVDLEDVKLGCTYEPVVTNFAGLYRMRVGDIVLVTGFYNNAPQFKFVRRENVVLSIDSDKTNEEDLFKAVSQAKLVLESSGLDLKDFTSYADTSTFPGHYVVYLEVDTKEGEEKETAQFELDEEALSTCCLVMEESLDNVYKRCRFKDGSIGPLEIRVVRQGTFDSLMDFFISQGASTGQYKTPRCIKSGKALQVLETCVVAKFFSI
Put plainly: TLC with [α-32P]ATP, acyl-AMP and AMP formation. Format: biochemical. To be noted: without or with glutamate, 1 mM MgCl2, pH 8.0, 25 °C.

For `Nc1ncnc2c1ncn2[C@@H]1O[C@H](COP(=O)(O)OP(=O)(O)OP(=O)(O)O)[C@@H](O)[C@H]1O` [ATP], the “single-turnover TLC with [α-32P]ATP, acyl-AMP formation” value in assay [1] was “rates of turnover from ATP to acyl-AMP (k1)”. The Km is the concentration of substrate that gives half-maximal velocity. Consider `O=C(O)c1ccccc1` [BA], for which the Km in assay [2] stood at 880 ± 68 µM. Turning to `O=C(O)Cc1c[nH]c2ccccc12` [IAA], the Km in assay [2] stood at 540 ± 17 µM.

For `O=C(O)Cc1ccccc1` [PAA], in assay [2], the Km turned out to be 1500 ± 280 µM.

As for `C=C(O[C@@H]1C=C(C(=O)O)C=C[C@H]1O)C(=O)O` [chorismate], the “TLC with [α-32P]ATP, acyl-AMP and AMP formation” value in assay [3] was “reactions using BA, 4-HBA, and chorismate produced acyl-AMP and AMP”.
